Test results published in ChEMBL document CHEMBL1201862, “PubChem BioAssay data set” (2004).
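96-well plates; 48 h exposure; 5 concentrations. Endpoints by linear interpolation between flanking doses. Not reached: highest tested concentration assigned. The concentration for 50% growth inhibition is given as GI50.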 Activity calls are given as the source filed them. Cut-off read from the data, not from the text of the source: active = GI50 up to about 1.1 µM and inactive = higher.

Key:
Test in all cases: inhibition of tumour cell growth, NCI panel, 48 h
OVCAR-5 = tested on: OVCAR-5
CAKI-1 = tested on: CAKI-1
OVCAR-8 = tested on: OVCAR-8
EKVX = tested on: EKVX
RPMI-8226 = tested on: RPMI-8226
BT-549 = tested on: BT-549
SN12C = tested on: SN12C
HT-29 = tested on: HT-29
NCI-H23 = tested on: NCI-H23
MCF7 = tested on: MCF7
UO-31 = tested on: UO-31
U-251 = tested on: U-251
PC-3 = tested on: PC-3
SK-OV-3 = tested on: SK-OV-3
M14 = tested on: M14
SF-539 = tested on: SF-539
MDA-MB-435 = tested on: MDA-MB-435
HCT-15 = tested on: HCT-15
NCI-H522 = tested on: NCI-H522
SK-MEL-28 = tested on: SK-MEL-28
UACC-257 = tested on: UACC-257
MDA-N = tested on: MDA-N
786-0 = tested on: 786-0
OVCAR-3 = tested on: OVCAR-3
A498 = tested on: A498
HCT-116 = tested on: HCT-116
ACHN = tested on: ACHN
SNB-19 = tested on: SNB-19
SK-MEL-5 = tested on: SK-MEL-5
A549 = tested on: A549
COLO 205 = tested on: COLO 205
MOLT-4 = tested on: MOLT-4
SNB-75 = tested on: SNB-75
SF-268 = tested on: SF-268
HCC 2998 = tested on: HCC 2998
IGROV-1 = tested on: IGROV-1
KM12 = tested on: KM12
HOP-62 = tested on: HOP-62
CCRF-CEM = tested on: CCRF-CEM
K562 = tested on: K562
Hs-578T = tested on: Hs-578T
T47D = tested on: T47D
DU-145 = tested on: DU-145
HL-60 = tested on: HL-60
NCI/ADR-RES = tested on: NCI/ADR-RES
SR = tested on: SR
NCI-H226 = tested on: NCI-H226
SW-620 = tested on: SW-620
LOX IMVI = tested on: LOX IMVI
SK-MEL-2 = tested on: SK-MEL-2
SF-295 = tested on: SF-295
UACC-62 = tested on: UACC-62
NCI-H460 = tested on: NCI-H460
Malme-3M = tested on: Malme-3M
MDA-MB-231 = tested on: MDA-MB-231
RXF 393 = tested on: RXF 393
HOP-92 = tested on: HOP-92
TK-10 = tested on: TK-10
OVCAR-4 = tested on: OVCAR-4

SMILES: COC(OC)(c1ccccc1)C(Br)Br
- GI50 (OVCAR-5): > 100 µM (inactive)
- GI50 (CAKI-1): 24.6 µM (inactive)
- GI50 (OVCAR-8): > 100 µM (inactive)
- GI50 (EKVX): > 100 µM (inactive)
- GI50 (RPMI-8226): 36.5 µM (inactive)
- GI50 (BT-549): > 100 µM (inactive)
- GI50 (SN12C): > 100 µM (inactive)
- GI50 (HT-29): 57.4 µM (inactive)
- GI50 (NCI-H23): > 100 µM (inactive)
- GI50 (MCF7): 39 µM (inactive)
- GI50 (UO-31): > 100 µM (inactive)
- GI50 (U-251): > 100 µM (inactive)
- GI50 (PC-3): > 100 µM (inactive)
- GI50 (SK-OV-3): > 100 µM (inactive)
- GI50 (M14): 18.6 µM (inactive)
- GI50 (SF-539): > 10 µM (inactive)
- GI50 (MDA-MB-435): 20.2 µM (inactive)
- GI50 (HCT-15): 17.1 µM
- GI50 (NCI-H522): 17.8 µM (inactive)
- GI50 (SK-MEL-28): > 100 µM (inactive)
- GI50 (UACC-257): > 100 µM (inactive)
- GI50 (MDA-N): 31.7 µM (inactive)
- GI50 (786-0): 23.2 µM (inactive)
- GI50 (OVCAR-3): 48.3 µM (inactive)
- GI50 (A498): > 100 µM (inactive)
- GI50 (HCT-116): 17.9 µM (inactive)
- GI50 (ACHN): > 100 µM (inactive)
- GI50 (SNB-19): > 100 µM (inactive)
- GI50 (SK-MEL-5): 67.5 µM (inactive)
- GI50 (A549): > 100 µM (inactive)
- GI50 (COLO 205): 17.3 µM (inactive)
- GI50 (MOLT-4): 16.1 µM (inactive)
- GI50 (SNB-75): 81.1 µM (inactive)
- GI50 (SF-268): 42.6 µM (inactive)
- GI50 (HCC 2998): > 100 µM (inactive)
- GI50 (IGROV-1): 50.8 µM (inactive)
- GI50 (KM12): > 100 µM (inactive)
- GI50 (HOP-62): > 100 µM (inactive)
- GI50 (CCRF-CEM): 13.6 µM (inactive)
- GI50 (K562): 13.9 µM (inactive)
- GI50 (Hs-578T): 78 µM (inactive)
- GI50 (T47D): 39.7 µM (inactive)
- GI50 (DU-145): > 100 µM (inactive)
- GI50 (HL-60): 23.6 µM (inactive)
- GI50 (NCI/ADR-RES): 51.8 µM (inactive)
- GI50 (SR): 21 µM (inactive)
- GI50 (NCI-H226): > 100 µM (inactive)
- GI50 (SW-620): 15.8 µM (inactive)
- GI50 (LOX IMVI): 28.2 µM (inactive)
- GI50 (SK-MEL-2): > 100 µM (inactive)
- GI50 (SF-295): > 100 µM (inactive)
- GI50 (UACC-62): 55.1 µM (inactive)
- GI50 (NCI-H460): > 100 µM (inactive)
- GI50 (Malme-3M): 16.7 µM (inactive)
- GI50 (MDA-MB-231): 74.5 µM (inactive)

SMILES: COc1ccc2c3c([nH]c2c1)[C@H]1C[C@H]2[C@H](C[C@@H](O)[C@H](OC)[C@H]2C(=O)O)CN1CC3
- GI50 (OVCAR-5): > 100 µM (inactive)
- GI50 (CAKI-1): > 100 µM (inactive)
- GI50 (OVCAR-8): > 100 µM (inactive)
- GI50 (EKVX): > 100 µM (inactive)
- GI50 (RPMI-8226): > 100 µM (inactive)
- GI50 (BT-549): > 100 µM (inactive)
- GI50 (SN12C): > 100 µM (inactive)
- GI50 (HT-29): > 100 µM (inactive)
- GI50 (NCI-H23): > 100 µM (inactive)
- GI50 (MCF7): > 100 µM (inactive)
- GI50 (UO-31): > 100 µM (inactive)
- GI50 (U-251): > 100 µM (inactive)
- GI50 (PC-3): > 100 µM (inactive)
- GI50 (SK-OV-3): > 100 µM (inactive)
- GI50 (RXF 393): > 100 µM (inactive)
- GI50 (M14): > 100 µM (inactive)
- GI50 (SF-539): > 100 µM (inactive)
- GI50 (MDA-MB-435): > 100 µM (inactive)
- GI50 (HCT-15): > 100 µM
- GI50 (NCI-H522): > 100 µM (inactive)
- GI50 (SK-MEL-28): > 100 µM (inactive)
- GI50 (UACC-257): > 100 µM (inactive)
- GI50 (MDA-N): > 100 µM (inactive)
- GI50 (786-0): > 100 µM (inactive)
- GI50 (OVCAR-3): > 100 µM (inactive)
- GI50 (A498): > 100 µM (inactive)
- GI50 (HOP-92): > 100 µM (inactive)
- GI50 (HCT-116): > 100 µM (inactive)
- GI50 (ACHN): > 100 µM (inactive)
- GI50 (SNB-19): > 100 µM (inactive)
- GI50 (SK-MEL-5): > 100 µM (inactive)
- GI50 (A549): > 100 µM (inactive)
- GI50 (COLO 205): > 100 µM (inactive)
- GI50 (MOLT-4): > 100 µM (inactive)
- GI50 (SNB-75): > 100 µM (inactive)
- GI50 (SF-268): > 100 µM (inactive)
- GI50 (HCC 2998): > 100 µM (inactive)
- GI50 (IGROV-1): > 100 µM (inactive)
- GI50 (KM12): > 100 µM (inactive)
- GI50 (TK-10): > 100 µM (inactive)
- GI50 (HOP-62): > 100 µM (inactive)
- GI50 (CCRF-CEM): > 100 µM (inactive)
- GI50 (K562): > 100 µM (inactive)
- GI50 (Hs-578T): 62.8 µM (inactive)
- GI50 (T47D): > 100 µM (inactive)
- GI50 (DU-145): > 100 µM (inactive)
- GI50 (NCI/ADR-RES): > 100 µM (inactive)
- GI50 (SR): > 100 µM (inactive)
- GI50 (NCI-H226): > 100 µM (inactive)
- GI50 (SW-620): > 100 µM (inactive)
- GI50 (OVCAR-4): > 100 µM (inactive)
- GI50 (LOX IMVI): > 100 µM (inactive)
- GI50 (SK-MEL-2): > 100 µM (inactive)
- GI50 (SF-295): > 100 µM (inactive)
- GI50 (UACC-62): > 100 µM (inactive)
- GI50 (NCI-H460): > 100 µM (inactive)
- GI50 (Malme-3M): > 100 µM (inactive)
- GI50 (MDA-MB-231): > 100 µM (inactive)

SMILES: c1csc(-c2ccsc2-c2ccsc2)c1
- GI50 (OVCAR-5): > 100 µM (inactive)
- GI50 (CAKI-1): > 100 µM (inactive)
- GI50 (OVCAR-8): 91.2 µM (inactive)
- GI50 (EKVX): 53.8 µM (inactive)
- GI50 (RPMI-8226): 30.2 µM (inactive)
- GI50 (BT-549): > 100 µM (inactive)
- GI50 (SN12C): > 100 µM (inactive)
- GI50 (HT-29): > 100 µM (inactive)
- GI50 (NCI-H23): 43.5 µM (inactive)
- GI50 (MCF7): > 100 µM (inactive)
- GI50 (UO-31): 80 µM (inactive)
- GI50 (U-251): > 100 µM (inactive)
- GI50 (PC-3): 41.3 µM (inactive)
- GI50 (SK-OV-3): > 100 µM (inactive)
- GI50 (RXF 393): 25.6 µM (inactive)
- GI50 (M14): > 100 µM (inactive)
- GI50 (SF-539): > 100 µM (inactive)
- GI50 (MDA-MB-435): 39.3 µM (inactive)
- GI50 (HCT-15): 39.8 µM
- GI50 (SK-MEL-28): > 100 µM (inactive)
- GI50 (UACC-257): > 100 µM (inactive)
- GI50 (MDA-N): 73.1 µM (inactive)
- GI50 (786-0): 97.3 µM (inactive)
- GI50 (OVCAR-3): 16.8 µM (inactive)
- GI50 (A498): > 100 µM (inactive)
- GI50 (HOP-92): > 100 µM (inactive)
- GI50 (HCT-116): 60.8 µM (inactive)
- GI50 (ACHN): > 100 µM (inactive)
- GI50 (SK-MEL-5): 70 µM (inactive)
- GI50 (A549): 43.1 µM (inactive)
- GI50 (COLO 205): 73.8 µM (inactive)
- GI50 (MOLT-4): 28.4 µM (inactive)
- GI50 (SNB-75): > 100 µM (inactive)
- GI50 (SF-268): 92.5 µM (inactive)
- GI50 (HCC 2998): 28.3 µM (inactive)
- GI50 (IGROV-1): > 100 µM (inactive)
- GI50 (KM12): 48.4 µM (inactive)
- GI50 (TK-10): > 100 µM (inactive)
- GI50 (HOP-62): > 100 µM (inactive)
- GI50 (CCRF-CEM): 45.2 µM (inactive)
- GI50 (K562): 73.8 µM (inactive)
- GI50 (Hs-578T): 90.2 µM (inactive)
- GI50 (T47D): > 100 µM (inactive)
- GI50 (DU-145): > 100 µM (inactive)
- GI50 (HL-60): 33.1 µM (inactive)
- GI50 (NCI/ADR-RES): 76 µM (inactive)
- GI50 (SR): 33.1 µM (inactive)
- GI50 (NCI-H226): 0.0264 µM (active)
- GI50 (SW-620): > 100 µM (inactive)
- GI50 (OVCAR-4): 84.1 µM (inactive)
- GI50 (LOX IMVI): > 100 µM (inactive)
- GI50 (SK-MEL-2): 17.5 µM (inactive)
- GI50 (SF-295): 57.4 µM (inactive)
- GI50 (UACC-62): > 100 µM (inactive)
- GI50 (NCI-H460): 97.9 µM (inactive)
- GI50 (MDA-MB-231): > 100 µM (inactive)
